Three molecules from patent publication US12410148B2, “Antibody drug conjugates” (Pharma Mar, S.A., priority 2013, dated 2025) can be followed below.

The test system of data set [1] is Karpas-299, U937, Raji and RPMI-8226 cells. Put plainly: In vitro cytotoxicity, whole CD4 cell panel. Conditions: Homo sapiens. The source says: (§1) All tumor cell lines used in this study were obtained from the American Type Culture Collection (ATCC), unless otherwise indicated; BT-474 (ATCC HTB-20, Breast Ductal Carcinoma), SK-BR-3 (ATCC HTB-30, Breast Adenocarcinoma) and HCC-1954 (ATCC CRL-2338, Breast Ductal Carcinoma), all HER2+; MDA-MB-231 (ATCC HTB-26, Breast Adenocarcinoma) and MCF-7 (ATCC HTB-22 Breast Adenocarcinoma, pleural effusion), all HER2-; SK-OV-3 (ATCC HTB-77, Ovary Adenocarcinoma), HER2+; NB-4 (Acute Promyelocytic Leukemia, APL, CD13+, M. Lanotte et al. (1991) NB4, a maturation inducible cell line with t(15;17) marker isolated from a human acute promyelocytic leukemia (M3). Blood 77, 1080-1086), (CD13+) and U937 (ATCC CRL-1 593.2, Histiocytic Lymphoma, CD13+ and CD4+); Raji (ATCC CCL-86, Burkitt's Lymphoma) (CD13−, CD20+, CD5−, and CD4−); RPMI-8226 (ATCC CRM-CCL-155, Multiple Myeloma) (CD13−, CD20−, CD5− and CD4−); Karpas-299 (DSMZ ACC-31, Non-Hodgkin's Lymphoma) (CD20−, CD5+, and CD4+); MOLT-4 (ATCC CRL-1 582, Acute Lymphoblastic Leukemia, CD5+). In addition, the two Raji cell (ATCC CCL-86, Burkitt's Lymphoma) clones used in this study Raji-clone #10 (high CD5 expression) and Raji-clone18 (null CD5 expression), were provided by Dr. Juan M. Zapata (Instituto de Investigaciones Biomedicas “Alberto Sols”, CSIC-UAM, Madrid, Spain). Cells were maintained at 37° C., 5% CO 2 and 95% humidity in Dulbecco's Modified Eagle's Medium (DMEM) (for MCF and MDA-MB-231 cells), RPMI-1640 (for SK-BR-3, HCC-1954, NB-4, U937, Raji, RPMI-8226, Karpas-299, MOLT-4, Raji-clone #10 and Raji-clone #18 cells), RPMI-1640+1% ITS (for BT-474 cells) or McCOyS (for SK-OV-3 cells), all media supplemented with 10% Fetal Calf Serum (FCS) and 100 units/mL penicillin and streptomycin.
(§2) For suspension cells: A standard metabolic assay using MTT (3-(4,5-Dimethylthiazol-2-yl)-2,5-diphenyltetrazolium bromide) was adapted for quantitative measurement of cell growth and cytotoxicity, as described in T. Mosmann (1983) Rapid colorimetric assay for cellular growth and survival: Application to proliferation and cytotoxicity assays. J. Immunol. Meth., 65, 55-63. Briefly, MTT solution was added to the cell cultures at a final concentration of 0.5 mg/mL, and incubated for 1 to 4 hours at 37° C. until formazan crystals are formed. Culture medium is carefully removed from the cell cultures and formazan crystals resuspended in 100 μl DMSO. After mixing to assure solubilization, the quantity of formazan (presumably directly proportional to the number of viable cells) is measured by recording changes in absorbance at 570 nm using a plate reading spectrophotometer. Cell survival was expressed as percentage of control, untreated cell survival.
(§3) The IC50 value refers to the concentration of compound inducing a 50% of cell death as compared to the control cell survival.
The in vitro cytotoxic activity of ADC16 along with the parent cytotoxic Compounds 1, 4, and 40, was evaluated against different human cancer cell lines expressing or not the CD4 antigen, including Karpas-299 and U937 (both CD4+); Raji and RPMI-8226 (both CD4−). Standard dose-response (DR) curves for 72 hours were performed.

For data set [2], the system named is MOLT-4 cells. The data set is described as follows: In vitro cytotoxicity, MTT assay, 72 h dose-response. Type of data set: cell-based. The conditions noted are these: Homo sapiens, CD5+. A general note: Tetrazolium assays rely on reduction of a dye to a coloured formazan, in cell work by metabolically active cells.
Protocol: (§4) Briefly, MTT solution was added to the cell cultures at a final concentration of 0.5 mg/mL, and incubated for 1 to 4 hours at 37° C. until formazan crystals are formed. Culture medium is carefully removed from the cell cultures and formazan crystals resuspended in 100 μl DMSO. […] Cell survival was expressed as percentage of control, untreated cell survival.
Data set [3] has as its system Raji-clone #18 (null CD5 expression). Described as above. It counts as cell-based. Conditions: Homo sapiens.
Protocol: as §4
Data set [4] deals with MCF-7 cells. The data set is described as follows: In vitro cytotoxicity, SRB assay, 72 h dose-response. It counts as cell-based. The conditions noted are these: Homo sapiens, MCF7, 72 h. The source says:
Nature Protocols, 1, 1112-1 116.

Data set [5] deals with NB4, U937, Raji and RPMI-8226 cells. Put plainly: In vitro cytotoxicity, whole CD13 cell panel. The conditions noted are these: for IC50: Homo sapiens.
Text: as §1, §2, §3
The in vitro cytotoxic activity of ADC9 along with the parent cytotoxic Compounds 1 and 4, was evaluated against different human tumor cell lines expressing or not the CD13 receptor, including NB4 and U937 (CD13 positive cells) and Raji and RPMI-8226 (CD13 negative cells). Standard dose-response (DR) curves for 72 hours were performed.

Data set [6] deals with NB-4 cells. The data set is described as follows: In vitro cytotoxicity, MTT assay, 72 h dose-response. Type of data set: cell-based. The conditions noted are these: Homo sapiens, CD13+.
Protocol: as §4
The test system of data set [7] is Karpas-299 cells. The description is as above. It counts as cell-based, human. Conditions: CD20−, CD5+, CD4+.
Protocol: as §4
Data set [8] relates to RPMI-8226 cells. The data set is described as above. Type of data set: cell-based, human. The conditions noted are these: CD13−, CD20−, CD5−, CD4−.
Protocol: as §4
Data set [9] has as its system Raji-clone #10 (high CD5 expression). The description is as above. It counts as cell-based. The conditions noted are these: Homo sapiens.
Protocol: as §4
Data set [10] relates to Raji, RPMI-8226 and Karpas-299 cells. The data set is described as follows: In vitro cytotoxicity, whole CD20 cell panel. Conditions: Homo sapiens.
Text: as §1, §2, §3
The in vitro cytotoxic activity of ADC12 along with the parent cytotoxic Compounds 1, 4, and 40, was evaluated was assayed against different human cancer cell lines expressing or not the CD20 antigen, including Raji (CD20 positive cells); RPMI-8226 and Karpas-299 (CD20 negative cells). Standard dose-response (DR) curves for 72 hours were performed.

Data set [11] relates to Karpas-299, MOLT-4, Raji and RPMI-8226 cells. Put plainly: In vitro cytotoxicity, whole CD5 cell panel. Conditions: for IC50: Homo sapiens.
Text: as §1, §2, §3
The in vitro cytotoxic activity of ADC14 along with the parent cytotoxic Compounds 1, 4, and 40, was evaluated against different human cancer cell lines expressing or not the CD5 antigen, including Karpas-299 and MOLT-4 (both CD5+); Raji and RPMI-8226 (both CD5−). Standard dose-response (DR) curves for 72 hours were performed.

Data set [12] relates to U937 cells. The data set is described as follows: In vitro cytotoxicity, MTT assay, 72 h dose-response. The conditions noted are these: CD13+, CD4+. Type of data set: cell-based, human.
Protocol: as §4
Where [13] appears, read: read-out: IC50 values across the different cell lines tested (range).
[14] abbreviates: read-out: mean IC50 value across the whole cell panel.
[15] abbreviates: Homo sapiens, KARPAS-299, 72 h, read-out: IC50.
The mark [16] stands for this setting: Homo sapiens, RPMI-8226, 72 h, read-out: IC50.

≈ marks a conversion by molar mass, not a printed value. Where “and” joins values, the source holds several entries; their conditions need not be identical. Equal entries are not always repeated. Where two headings read alike, the source gives them in different places.

Usually IC50 stands for the concentration that inhibits the measured activity by half. What is called IC20 is the concentration at which the effect reaches the 20% level. Read a high IC20 as weaker potency.

For `COC1=CC[C@@H]([C@@H](C)/C=C(C)/C=C\C=C/C(=O)N[C@H](C(=O)N/C=C\C[C@H](C/C=C(\C)Cl)OC(=O)NCCCN)C(C)(C)C)OC1=O` [Compound 4], the IC50 in [1] (setting [13]) is 0.00061 µg/mL to 0.0027 µg/mL and 0.92 nM to 4.1 nM; in data set [1] (setting [14]), 0.0012 µg/mL and 1.8 nM; in data set [2], 0.00091 µg/mL and 1.37 nM; in [3] (C#18 (null CD5)), > 15.1 nM and > 0.01 µg/mL; in data set [4] (HER2−, 72 h, read-out: IC50), 0.000415 µg/mL and 0.626 nM; in data set [5] (setting [13]), 7.9e-05 µg/mL to 0.00265 µg/mL and 0.12 nM to 4 nM. In addition, the IC50 was 0.00084 µg/mL and 1.2 nM in data set [5] (setting [14]); 7.9e-05 µg/mL and 0.12 nM in [6]; 1.38 nM in [7] (read-out: IC50); 0.00093 µg/mL and 1.4 nM in [7] (setting [15]); 0.00057 µg/mL in [8]; 0.859 nM in data set [8] (read-out: IC50). Further, the IC50 is 0.000358 µg/mL and 0.539 nM in data set [8] (setting [16]); 0.0099 µg/mL and 14.9 nM in data set [9] (C#10 (high CD5)); 15.7 nM in data set [9] (clone #10, CD5 expressing); 0.00057 µg/mL to 0.0014 µg/mL and 0.86 nM to 2.1 nM in [10] (setting [13]); 0.00097 µg/mL and 1.5 nM in data set [10] (setting [14]); 0.00063 µg/mL to 0.0027 µg/mL and 0.95 nM to 4.1 nM in [11] (setting [13]). The IC50 in data set [11] (setting [14]) is 0.0013 µg/mL and 1.9 nM; in data set [12], 0.000278 µg/mL; in data set [12] (read-out: IC50), 0.419 nM. Besides, the IC20 in data set [3] (C#18 (null CD5)) was 0.00677 µg/mL and 10.2 nM; in [9] (C#10 (high CD5)), 0.00465 µg/mL and 7.01 nM. Besides, the “mean IC50 value across the whole cell panel” value in [5] (CD13+ and CD13− lines) worked out at 1.2 nM. Also, the “reduction of cytotoxic activity as compared to Compound 40” value in data set [11] (amine containing group) is “around 1 log”.

For the molecule `COC1=CC[C@@H]([C@@H](C)/C=C(C)/C=C\C=C/C(=O)N[C@H](C(=O)N/C=C\C[C@H](C/C=C(\C)Cl)OC(=O)NCCCNC(=O)CCCCCN2C(=O)C=CC2=O)C(C)(C)C)OC1=O` [Compound 1], the IC50 in [1] (setting [13]) was 0.0015 µg/mL to 0.0073 µg/mL and 1.7 nM to 8.6 nM; in [1] (setting [14]), 0.0034 µg/mL and 3.9 nM; in [2], 0.00335 µg/mL and 3.91 nM; in [3] (C#18 (null CD5)), 0.038 µg/mL and 44.4 nM; in [3] (clone #18, CD5 null), 44 nM; in [4] (HER2−, 72 h, read-out: IC50), 0.0037 µg/mL and 4.32 nM. In addition, the IC50 was 0.0008 µg/mL to 0.0063 µg/mL and 0.94 nM to 7.3 nM in [5] (setting [13]); 0.0028 µg/mL and 3.3 nM in data set [5] (setting [14]); 0.000805 µg/mL and 0.939 nM in data set [6]; 0.0019 µg/mL and 2.22 nM in data set [7] (setting [15]); 0.0025 µg/mL and 2.92 nM in data set [8] (setting [16]); 0.0029 µg/mL and 3.39 nM in data set [9] (C#10 (high CD5)). Besides, the IC50 in data set [9] (clone #10, CD5 expressing) was 3.4 nM; in data set [10] (setting [13]), 0.0016 µg/mL to 0.0028 µg/mL and 1.9 nM to 3.3 nM; in [10] (setting [14]) it was 0.0021 µg/mL and 2.5 nM; in data set [11] (setting [13]), 1.8 to 11 ng/mL (≈ 2.1 to 12.8 nM); in data set [11] (setting [14]), 0.0046 µg/mL and 5.3 nM; in data set [12] (Homo sapiens, U-937, 72 h, read-out: IC50) it was 0.00165 µg/mL and 1.93 nM.

As for `COC1=CC[C@@H]([C@@H](C)/C=C(C)/C=C\C=C/C(=O)N[C@H](C(=O)N/C=C\C[C@H](C/C=C(\C)Cl)OC(N)=O)C(C)(C)C)OC1=O` [Compound 40], the IC50 was 0.13 nM to 0.47 nM and 7.9e-05 µg/mL to 0.00028 µg/mL in data set [1] (setting [13]); 0.00015 µg/mL and 0.25 nM in data set [1] (setting [14]); 9.3e-05 µg/mL and 0.154 nM in [2]; 0.89 ng/mL in [3] (C#18 (null CD5)); 1.47 nM in data set [3] (clone #18, CD5 null); 0.000132 µg/mL and 0.218 nM in [4]. For the same molecule, the IC50 was 0.031 to 0.17 ng/mL (≈ 0.0511 to 0.28 nM) in [5] (setting [13]); 8.6e-05 µg/mL and 0.14 nM in [5] (setting [14]); 3.1e-05 µg/mL and 0.052 nM in data set [6]; 0.00013 µg/mL in [7]; 0.142 nM and 0.215 nM in data set [7] (read-out: IC50); 8.65e-05 µg/mL and 0.00012 µg/mL in data set [8]. The IC50 in data set [8] (read-out: IC50) is 0.143 nM and 0.198 nM; in data set [9] (C#10 (high CD5)) it was 0.495 ng/mL; in data set [9] (clone #10, CD5 expressing) it was 0.817 nM; in data set [10] (setting [13]), 8.6e-05 µg/mL to 0.00011 µg/mL and 0.14 nM to 0.19 nM; in [10] (setting [14]) it was 9.6e-05 µg/mL and 0.16 nM; in data set [11] (setting [13]), 7.5e-05 µg/mL to 0.00036 µg/mL and 0.12 nM to 0.59 nM. Further, the 50% inhibitory concentration (IC50) in [11] (setting [14]) was 0.00016 µg/mL and 0.26 nM; in data set [12], 7.9e-05 µg/mL; in data set [12] (read-out: IC50), 0.131 nM.
